Results on two compounds are retold here after publication PMC8388125, “Kinetic and Structural Characterization of the Self-Labeling Protein Tags HaloTag7, SNAP-tag, and CLIP-tag” (Biochemistry, 2021).

One may read the Kd as a measure of binding affinity in units of concentration.

The target in test [1] is T1, HaloTag7 (HT7) (Rhodococcus sp., UniProt P59336, A155T/A167V/A224E/C128F/C176G/D78G/E160K/E257K/G292T/H272N/K175M/K195N/L47V/L88M/N227D/P291S/S2A/S58T/T264A/V172T/Y273L/Y87F).
T1 construct: made in house; host or cells: E. coli BL21(DE3)-pLysS
T1 sequence (P59336 other isoform, or with tags, fused parts or gaps with the stated changes): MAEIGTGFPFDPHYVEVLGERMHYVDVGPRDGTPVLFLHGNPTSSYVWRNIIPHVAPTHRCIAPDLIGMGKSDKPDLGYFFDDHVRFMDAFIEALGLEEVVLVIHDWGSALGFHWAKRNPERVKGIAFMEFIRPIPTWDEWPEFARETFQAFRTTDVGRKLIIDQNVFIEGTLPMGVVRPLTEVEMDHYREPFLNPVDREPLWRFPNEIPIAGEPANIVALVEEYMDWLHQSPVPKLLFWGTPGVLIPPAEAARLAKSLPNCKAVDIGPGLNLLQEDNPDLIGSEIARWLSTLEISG
As to the kind of experiment: HT7 labeling kinetics via stopped flow (fluorescence anisotropy). Format: biochemical. The procedure:
(§1) Labeling kinetics of HT7 with CA-TMR, CA-JF549, CA-CPY, CA-LIVE580, and CA-JF669 and labeling kinetics of HOB with CA-TMR were measured by recording fluorescence anisotropy changes over time using a BioLogic SFM-400 stopped-flow instrument (BioLogic Science Instruments, Claix, France) in a single-mixing configuration at 37 °C. HT7 protein and substrates in activity buffer were mixed in a 1:1 stoichiometry to reach a recordable speed for these fast reactions and to increase the information content of the traces. Concentrations were varied from 0.125 to 1 μM. The anisotropy of the free substrate was measured to obtain a baseline.
(§2) Kinetic stopped-flow data were preprocessed using a custom R script.[36],[37] Recorded pretrigger time points were removed, and time points were adjusted to start at time zero. Values from replicates were averaged. The anisotropy of the free dye was calculated by averaging anisotropy values of the baseline measurements. Preprocessed data were fitted to a kinetic model (eqs 5 and 6) described by differential eqs 7–10 using the DynaFit software.[38] The anisotropy of the free dye and the mixing delay of the stopped-flow machine were set as fixed offset and delay parameters in DynaFit. It was assumed that the protein substrate complex and the reacted product are contributing equally to the anisotropy signal. […] Standard deviations (normal distribution verified) and confidence intervals of fitted parameters were estimated with the Monte Carlo method[39] with standard settings (N = 1000, 5% worst fits discarded). In the case of SNAP kinetics with BG-TMR, the substrate concentration was fitted by DynaFit to rule out quantification errors of the BG-quenched fluorophore. Accurate fitting of the concentration was ensured by including conditions in which protein is limiting and no maximum FP value was reached.
(In general: Polarisation of emitted light reports the rotation of a fluorescent probe.)

Test [2] addresses T2, HT7^D106A (Rhodococcus sp., UniProt P59336, A155T/A167V/A224E/C128F/C176G/D106A/D78G/E160K/E257K/G292T/H272N/K175M/K195N/L47V/L88M/N227D/P291S/S2A/S58T/T264A/V172T/Y273L/Y87F).
T2 construct: made in house; host or cells: E. coli BL21(DE3)-pLysS
As to the kind of experiment: Affinity of HT7^D106A for CA substrates by fluorescence polarization. Format: binding. The protocol:
Binding affinities of HT7^D106A or HOB^D106A for chloroalkane (CA) substrates were determined by fluorescence polarization (FP, eq 1) measurements using a microplate reader (Spark20M, Tecan Group AG, Männedorf, Switzerland). The fluorescent substrates (10 nM) were titrated against different protein concentrations (0–250 μM) in activity buffer supplemented with 0.5 g/L bovine serum albumin (BSA). Assays were performed in black low-volume nonbinding 384-well plates (Corning Inc., Corning, NY) with a final volume of 20 μL. Obtained FP values were averaged and fitted to a single-site binding model (eq 2) to estimate Kd values for each fluorescent substrate. The FP value of each dye fully reacted with the native HT7 was used to improve fitting of the upper plateau of the curves by adding an extra data point at a protein concentration of 0.1 M. [drawing 1] 1 where FP is the fluorescence polarization, I∥ is the fluorescence intensity parallel to the excitation light polarization, I⊥ is the fluorescence intensity perpendicular to the excitation light polarization, and G is the grating factor (G = I∥/I⊥). [drawing 2] 2 where FPmin is the fluorescence polarization of the free fluorophore (lower plateau), FPmax is the maximal fluorescence polarization of fully bound fluorophore (upper plateau), Kd is the dissociation constant, and [protein] is the protein concentration.
Free binding energies were calculated from Kd values according to eq 4: [drawing 4] 4 where ΔG is the free binding energy, R is the universal gas constant, T is the temperature, and Kd is the dissociation constant.

The test system of test [3] is HOB (halo-based oligonucleotide binder, HT7 variant). As to the kind of experiment: HOB labeling kinetics via stopped flow (fluorescence anisotropy). Format: biochemical, Rhodococcus sp. The procedure:
as §1
Kinetic stopped-flow data were preprocessed using a custom R script.[36],[37] Recorded pretrigger time points were removed, and time points were adjusted to start at time zero. Values from replicates were averaged. The anisotropy of the free dye was calculated by averaging anisotropy values of the baseline measurements. Preprocessed data were fitted to a kinetic model (eqs 5 and 6) described by differential eqs 7–10 using the DynaFit software.[38] The anisotropy of the free dye and the mixing delay of the stopped-flow machine were set as fixed offset and delay parameters in DynaFit. […] In the case of SNAP kinetics with BG-TMR, the substrate concentration was fitted by DynaFit to rule out quantification errors of the BG-quenched fluorophore. […]

Test [4] concerns the target T3, SNAP-tag (SNAP) (Homo sapiens, UniProt P16455, A127T/A154D/C150Q/C62A/G131K/G132T/G153L/K125A/K32I/L33F/M134L/N157G/Q115S/Q116H/R128A/R135S/S151G/S152D/S159E).
T3 construct: made in house; host or cells: E. coli BL21(DE3)-pLysS
T3 sequence (P16455 1-182 K32I/L33F/C62A/Q115S/Q116H/K125A/A127T/R128A/G131K/G132T/M134L/R135S/C150Q/S151G/S152D/G153L/A154D/N157G/S159E limits assumed): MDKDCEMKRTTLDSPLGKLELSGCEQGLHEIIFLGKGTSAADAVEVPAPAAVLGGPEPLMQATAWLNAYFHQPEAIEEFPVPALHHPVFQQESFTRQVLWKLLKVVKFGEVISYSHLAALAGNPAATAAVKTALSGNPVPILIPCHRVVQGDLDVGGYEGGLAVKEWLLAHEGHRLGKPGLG
As to the kind of experiment: SNAP labeling kinetics via microplate reader (FP over time). The format is biochemical. The note with it: SNAP, plate reader, kinetic model 1. The procedure: (§3) Labeling kinetics of SNAP and CLIP substrates were measured by recording FP over time using a microplate reader in a manner analogous to that of HT7 labeling kinetics described above with the following changes. The fluorescent substrate concentration was fixed to 20 nM, and protein concentrations were varied from 15 to 900 nM. Measurements were performed in SNAP-FP buffer.
(§4) Kinetic data from microplate reader assays were fitted to a simplified kinetic model (eq 13) described by differential eqs 14–16 using DynaFit. The dead time of the measurements and baseline FP value were put in as fixed parameters. Standard deviations (normal distribution verified) and confidence intervals of fitted parameters were estimated with the Monte Carlo method with standard settings (N = 1000, 5% worst fits discarded). In the case of BG, CP, and BC kinetics, the substrate concentration was fitted by DynaFit to rule out quantification errors of the BG, CP, or BC fluorophores. Accurate fitting of the concentration was ensured by including conditions under which protein is limiting and no maximum FP value was reached.

For test [5], the target named is T4, CLIP-tag (CLIP) (Homo sapiens, UniProt P16455, A121V/A127T/A154D/C150Q/C62A/G131N/G132T/G153S/K125A/K32I/L33F/M134L/M60I/N157P/Q115S/Q116H/R128A/R135D/S151G/S152D/S159L/Y114E).
T4 construct: made in house; host or cells: E. coli BL21(DE3)-pLysS
T4 sequence (P16455 1-182 K32I/L33F/M60I/C62A/Y114E/Q115S/Q116H/A121V/K125A/A127T/R128A/G131N/G132T/M134L/R135D/C150Q/S151G/S152D/G153S/A154D/N157P/S159L limits assumed): T3 sequence (P16455 1-182 K32I/L33F/C62A/Q115S/Q116H/K125A/A127T/R128A/G131K/G132T/M134L/R135S/C150Q/S151G/S152D/G153L/A154D/N157G/S159E limits assumed) with M60I, Y114E, A121V, K131N, S135D, L153S, G157P, E159L
As to the kind of experiment: CLIP labeling kinetics via microplate reader (FP over time). The format is biochemical. The note with it: CLIP cross-reactivity. The protocol: as §3, §4

In test [6] the target is T5, SNAP^C145A (Homo sapiens, UniProt P16455, A127T/A154D/C145A/C150Q/C62A/G131K/G132T/G153L/K125A/K32I/L33F/M134L/N157G/Q115S/Q116H/R128A/R135S/S151G/S152D/S159E).
T5 construct: made in house; host or cells: E. coli BL21(DE3)-pLysS
T5 sequence (P16455 1-182 K32I/L33F/C62A/Q115S/Q116H/K125A/A127T/R128A/G131K/G132T/M134L/R135S/C145A/C150Q/S151G/S152D/G153L/A154D/N157G/S159E limits assumed): T3 sequence (P16455 1-182 K32I/L33F/C62A/Q115S/Q116H/K125A/A127T/R128A/G131K/G132T/M134L/R135S/C150Q/S151G/S152D/G153L/A154D/N157G/S159E limits assumed) with C145A
As to the kind of experiment: Affinity of SNAP^C145A for BG and CP fluorescent substrates by fluorescence polarization. The format is binding. The protocol: Binding affinities of SNAP^C145A and SNAPf^C145A for BG-Alexa488, CP-Alexa488, BG-fluorescein, CP-fluorescein, BG-MAP555, BG-JF549, BG-TMR(6), BG-TMR(5), CP-TMR, BG-CPY(6), BG-CPY(5), CP-CPY, BG-SiR, CP-SiR, BG-JF646, BG-Atto565, BG-Atto590, BG-sulfo-Cy3, BG-Cy3, BG-sulfo-Cy5, and BG-Cy5 were determined by fluorescence polarization in a manner analogous to that for HT7 affinities for CA substrates described above with the following changes. Fluorescent substrates were titrated at a final concentration of 50 nM against protein concentrations ranging from 0 to 250 μM at room temperature using 0.1 g/L BSA and 1 mM DTT (SNAP-FP buffer). The FP value of each dye fully reacted with the native SNAP/SNAPf was used to improve fitting of the upper plateau of the curves by adding an extra data point at a protein concentration of 0.005 M.

The target of test [7] is T3, SNAP-tag (SNAP). As to the kind of experiment: SNAP labeling kinetics via stopped flow (fluorescence anisotropy). The format is biochemical. The note with it: model 2. The procedure: Labeling kinetics of SNAP with BG-TMR were measured via stopped-flow in a manner analogous to that for HT7 kinetics described above; however, the final substrate concentration was fixed at 2 μM, and the protein concentration was varied from 1.875 to 50 μM. The activity buffer was supplemented with 1 mM DTT.
as §2

The target of test [8] is T6, hAGT (human O^6-alkylguanine-DNA alkyltransferase) (Homo sapiens, UniProt P16455).
T6 construct: StrepTag-II (N); enterokinase cleavage site (N); His10 (C); made in house; host or cells: E. coli BL21(DE3)-pLysS
T6 sequence (P16455 1-207): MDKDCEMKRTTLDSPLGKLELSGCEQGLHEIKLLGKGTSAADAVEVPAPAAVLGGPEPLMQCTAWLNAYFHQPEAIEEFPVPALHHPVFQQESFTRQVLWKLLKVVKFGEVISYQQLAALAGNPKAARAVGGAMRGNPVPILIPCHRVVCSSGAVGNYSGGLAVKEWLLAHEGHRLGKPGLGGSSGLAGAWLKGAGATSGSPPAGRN
As to the kind of experiment: hAGT labeling kinetics via microplate reader (FP over time). Format: biochemical. The procedure:
as §3, §4

Residue numbers refer to the chain shown, from its start.

T2 sequence (P59336 other isoform, or with tags, fused parts or gaps with the stated changes): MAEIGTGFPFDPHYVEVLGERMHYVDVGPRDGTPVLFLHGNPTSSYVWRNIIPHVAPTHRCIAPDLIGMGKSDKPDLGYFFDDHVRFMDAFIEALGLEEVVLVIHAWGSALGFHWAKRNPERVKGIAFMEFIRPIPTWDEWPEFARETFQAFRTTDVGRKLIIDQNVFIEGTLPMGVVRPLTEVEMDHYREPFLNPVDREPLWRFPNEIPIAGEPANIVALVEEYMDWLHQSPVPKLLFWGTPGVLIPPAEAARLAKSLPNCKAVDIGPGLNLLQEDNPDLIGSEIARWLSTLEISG

`CN(C)c1ccc2c(-c3cc(C(=O)NCCOCCOCCCCCCCl)ccc3C(=O)[O-])c3ccc(=[N+](C)C)cc-3oc2c1` [CA-TMR, chloroalkane-PEG-tetramethylrhodamine]: the values for the Kd in test [1] and in test [2] were 327 nM and 6240 nM, respectively. Moreover, the “k2 (± S.D.)” value in test [1] (HT7, stopped flow, model 2) is 8.06 (± 0.29) s-1; in test [3] (HOB, stopped flow, model 2), 5.05 (± 0.13) s-1. Besides, the “fold decrease in affinity of the 5-substituted compared to the 6-substituted rhodamine substrate” value in test [2] (HT7^D106A) came to 6.31 fold. The “free binding energy (ΔG)” value in test [2] (HT7^D106A, calculated from Kd) is reported as 30.9 kJ mol^–1. Further, in test [3] (HOB vs HT7), the “fold decrease in kapp of HOB compared to HT7” value turned out to be 2.09 ± 0.01 fold.
For the compound `CN(C)c1ccc2c(-c3cc(C(=O)NCc4ccc(COc5nc(N)nc6[nH]cnc56)cc4)ccc3C(=O)[O-])c3ccc(=[N+](C)C)cc-3oc2c1` [BG-TMR], the “kapp (value ± standard deviation)” value in test [4] is recorded as “(4.29 ± 0.01) × 10^5 M^–1 s^–1”. The “times slower reaction of CLIP than with BC-TMR” value in test [5] amounted to 100 times. The “fold lower Kd^C145A compared to Kd calculated from stopped-flow experiments using active SNAP” value in test [6] (SNAP^C145A vs active SNAP) is 3 fold. In test [6] (SNAP^C145A, fluorescence polarization, room temperature), the Kd was 680 nM. Besides, in test [7], the “k2 (± S.D.)” value is listed as 1.24 (± 0.02) s-1 and the “k-1 (± S.D.)” value is 1.02 (± 0.03) s-1. Moreover, the “times slower labeling of hAGT than of SNAP” value in test [8] (hAGT vs SNAP) came out at 130 times. Also, the “kapp (value ± standard deviation)” value in test [8] (hAGT, plate reader, model 1) was “(3.38 ± 0.01) × 10^3 M^–1 s^–1”.
